Here are results for three molecules from US20080300263A1, “Pyrazolo [1,5-a] pyrimidine compounds and pharmaceutical compositions containing them” (EiRx Therapeutics plc, priority 2005, published 2008).

For assay [1], the system named is breast cancer cell line MCF7. The experiment in a line: EC50 titration, Alamar Blue, adherent cells. It counts as cell-based. To be noted: Homo sapiens, 72 h. As to the method:
(§1) On the day of the assay compounds are used to prepare dilution series on Titration Plates which are plated at ten times their final screening concentration in 10 μl aliquots.
(§2) For adherent cell lines plated 24 hours previously, a 90 μl volume of the appropriate cell culture medium is then added to each well of the Titration Plates and mixed by repeated aspiration/dispensing, thus taking the compounds to their final test concentration. Once the Titration Plates have been prepared the media is removed from all wells of the cell culture plate and the contents of the Titration Plates are then transferred to the appropriate wells of their relevant Test Plates and incubated for 72 h at 37° C. and 5% CO2 after which time they are assayed by Alamar Blue. Using a combination of Microsoft Excel and Graph Pad Prism, EC50s are determined.
(§3) The EC50 values are calculated using the values obtained from the Alamar Blue readout which are converted into a “Percentage of the Untreated Control” and using Graph Pad Prism these values are plotted against the logarithm of the test concentration. Using a non-linear regression analysis a sigmoidal dose-response curve is generated from which the EC50 is determined.

Assay [2] concerns non-transformed breast cell line MCF10A. The experiment in a line: EC50 titration, Alamar Blue, adherent cells. To be noted: Homo sapiens, MCF-10A, 72 h. It counts as cell-based. As to the method: as §1, §2, §3
On the technique in general: Resazurin is reduced to fluorescent resorufin, in cell work by metabolically active cells.

In assay [3] the test system is colon cancer cell line HT29. The experiment in a line: EC50 titration, Alamar Blue, adherent cells. The class given is cell-based. The conditions noted are these: Homo sapiens, HT-29, 72 h. As to the method:
as §1, §2, §3

Assay [4] has as its system FRAT2-C9M-TF1 cells. The experiment in a line: EC50 titration, Alamar Blue, suspension cells. The class given is cell-based, Human. To be noted: for EC50: Homo sapiens, 72 h, Alamar Blue. The protocol:
as §1
(§4) Suspension cells are split 24 hours prior to drug treatment in order to bring the cultures into the log phase of growth. On the day of the assay the cells are plated directly into the Titration Plates at the appropriate pre-determined seeding density (Table 1) in 90 μl volumes thus reducing the concentration of the compounds to their final test concentration. The plates are incubated for 72 hours at 37° C. and 5% CO2 after which time they are assayed by Alamar Blue.
as §3

Assay [5] concerns C9M-TF1 cells. The experiment in a line: EC50 titration, Alamar Blue, suspension cells. It counts as cell-based. To be noted: Homo sapiens, 72 h. As to the method: as §1, §4, §3
The subject of another assay is HCT116. The experiment in a line: EC50 titration, Alamar Blue. The class given is cell-based. The conditions noted are these: Homo sapiens, HCT-116. The protocol: as §1, §2, §3
A further assay concerns LoVo. The experiment in a line: EC50 titration, Alamar Blue. It counts as cell-based. To be noted: Homo sapiens. As to the method:
as §1, §2, §3

The subject of assay [6] is FRAT2 overexpresing TF1 (FRAT2-C9M-TF1 cells). The experiment in a line: Primary high-throughput screen, Alamar Blue, suspension cells. The class given is cell-based. The conditions noted are these: Homo sapiens, compound at 10 μM, 72 h. The protocol: (§5) Daughter Plates containing 10 μl of a […] solution of test compound selected from among the candidate compounds stored at […] are thawed at room temperature. A 10 μL volume of 0.1% DMSO in PBS is added to all wells of Column 12 and the wells in Row A-F of Column 1. A 10 μl volume of a pre-determined concentration of the P13-Kinase inhibitor LY294002 is added to wells in Row G and H of Column 1. A 90 μl volume of the appropriate cell culture medium is then added to each well and mixed by repeated aspiration/dispensing. The compounds are at a final test concentration of 10 μM.
(§6) Once the Daughter Plates have been prepared the media is removed from all wells of the cell culture plate using an 8-Channel Vacuum Aspirator. The contents of the Daughter Plates are then transferred to the appropriate wells of their relevant Test Plates and the Test Plates are incubated for 72 h at 37° C. and 5% CO2. At the end of this period Test Plates are assayed by Alamar Blue. A 10 μl volume of Alamar Blue is added to all wells of the Test Plate. The Test Plates are incubated for […] at 37° C. and 5% CO2 and finally read using the BioTek SYNERGY plate reader (Excitation 530125 nm-Emission 590135 nm). Percentage inhibition is determined using Microsoft Excel spreadsheet calculations.
(§7) Suspension cells are split 24 hours prior to drug treatment in order to bring the cultures into the log phase of growth. On the day of the assay the cells are plated directly into the Daughter Plates at the appropriate pre-determined seeding density (Table 1) in 90 μl volumes, the concentration of the test compounds thus being reduced to 10 μM. Cells are plated in all wells apart from those in Column 12 which contain 901 normal culture medium alone. The plates are incubated for 72 h at 37° C. and 5% CO2 after which time they are assayed by Alamar Blue as per the preceding example.
(§8) The figures appearing in the columns are the percentage kill achieved by that compound at 10 μM.

The test system of assay [7] is C9M-TF1 cells. The assay is described as above. The class given is cell-based. To be noted: Homo sapiens, 72 h, compound at 10 μM, read-out: percentage kill, C9M. As to the method:
as §5, §6, §7, §8

Assay [8] concerns SW480 Colon adenocarcinoma (Dukes' type B). The experiment in a line: Primary high-throughput screen, Alamar Blue, adherent cells. The class given is cell-based. The conditions noted are these: Homo sapiens, compound at 10 μM, 72 h, read-out: percentage kill, SW480. As to the method:
(§9) Adherent cells are plated at a pre-determined seeding density (Table 1) in flat-bottom 96 well plates 24 hours prior to drug treatment. The cell lines are plated in 100 μl volumes in each well. Cells are plated in all wells apart from those in Column 12 which contain 100 μL normal culture medium alone. These plates will be known as the Test Plates. The Test Plates are labelled with a Daughter Plate ID.
as §5, §6, §8

Assay [9] deals with A549 Non Small Cell Lung Carcinoma. The assay is described as above. The class given is cell-based. To be noted: Homo sapiens, compound at 10 μM, 72 h, read-out: percentage kill, A549. The protocol: as §9, §5, §6, §8
The subject of assay [10] is NCI ADR RES Breast adenocarcinoma (pleural effusion). The assay is described as above. The conditions noted are these: Homo sapiens, compound at 10 μM, 72 h, read-out: percentage kill, NCI ADR RES. It counts as cell-based. The protocol:
as §9, §5, §6, §8

For assay [11], the system named is PC3 Prostate carcinoma (bone metastasis). Described as above. It counts as cell-based. To be noted: compound at 10 μM, 72 h; read-out: percentage kill, PC3. As to the method:
as §9, §5, §6, §8

Assay [12] deals with LS123 Colon adenocarcinoma (Dukes' type B). Described as above. The class given is cell-based. To be noted: Homo sapiens, LS-123; compound at 10 μM, 72 h; read-out: percentage kill, LS123. As to the method:
as §9, §5, §6, §8

Assay [13] has as its system MCF7 Mammary gland adenocarcinoma. Described as above. It counts as cell-based. To be noted: Homo sapiens, compound at 10 μM, 72 h, read-out: percentage kill, MCF7. The protocol:
as §9, §5, §6, §8

The subject of assay [14] is U1810 Non Small Cell Lung Carcinoma. The description is as above. It counts as cell-based. To be noted: U-1810; compound at 10 μM, 72 h; read-out: percentage kill, U1810. The protocol:
as §9, §5, §6, §8

Assay [15] relates to HT29 Colorectal adenocarcinoma. The assay is described as above. It counts as cell-based. To be noted: Homo sapiens, HT-29; compound at 10 μM, 72 h; read-out: percentage kill, HT29. The protocol: as §9, §5, §6, §8
Assay [16] relates to CACO2 Colon adenocarcinoma. The description is as above. It counts as cell-based. The conditions noted are these: Homo sapiens, Caco-2; compound at 10 μM, 72 h; read-out: percentage kill, CAC02. The protocol:
as §9, §5, §6, §8

Assay [17] concerns C9M-TF1 cells. The experiment in a line: LY294002 control plate titration, Alamar Blue. The class given is cell-based. The conditions noted are these: Homo sapiens, 72 h, FIG. 8. The protocol: (§10) This example describes an assay to examine the effect of the PI3K inhibitor LY294002 on cell survival for both FRAT2-[…]-TF1 or […]-TF1 cells, as determined by Alamar Blue. The growth factor GMCSF mediates its survival effect through the PI3/AKT pathway. Consequently, inhibitors of this pathway will increase apoptosis in pathway-dependent cell lines. Both FRAT2-[…]-TF1 or […]-TF1 are split 24 hours prior to drug treatment in order to bring the cultures into the log phase of growth. On the day of the assay the cells are plated directly into a 96 well microtitre plates containing 10 uL volumes of a serial dilutions of LY294002, such that there was a final cell number of 5000 cells per well in 90 uL volumes thus reducing the concentration of the compounds to their final test concentration. The plates are incubated for 72 h at 37° C. and 5% CO2 after which time they are assayed by Alamar Blue. […] The overexpression of FRAT2 leads to the stabilization β-catenin through disassociation of GSK3β from Axin and through the inhibition of β-catenin phosphorylation which results in an increased level of β-catenin in the nucleus of the cell where it forms a complex with the HMB box transcription factors LEF and TCF as well as with CREB Binding Protein. […]

In assay [18] the test system is FRAT2-C9M-TF1 cells. The experiment in a line: LY294002 control plate titration, Alamar Blue. The class given is cell-based. To be noted: Homo sapiens, 72 h, FIG. 8. The protocol:
as §10

Another assay relates to colon cancer. To be noted: cited from earlier work.

Read-outs that look alike come from different tables or passages of the source.

For orientation: EC50 means the concentration needed to bring the measured effect to its halfway point. In the case of `COc1ccc(-c2cnn3c(NCc4ccccn4)ccnc23)cc1` [Compound 3], the EC50 in [1] was found to be 0.83 µM; in assay [2], 7.24 µM; in [3], 0.74 µM; with FRAT2-C9M-TF1 cells [4] (absence of growth factor), 4.17 µM; with FRAT2-C9M-TF1 cells [4] (presence of growth factor), 2.24 µM; with C9M-TF1 cells [5] it was 5.62 µM. The concentration for a half-maximal effect (EC50) in the assay on HCT116 and in the assay with LoVo was 2.2 µM in each case. Besides, the inhibition at 10 µM is 76% in assay [6] (minus GMCSF, read-out: percentage kill, FRAT2−); 40% in assay [6] (plus GMCSF, read-out: percentage kill, FRAT2+); 8% in the assay on C9M-TF1 cells [7] (first C9M column); -12% with C9M-TF1 cells [7] (second C9M column); 64% in assay [8]; 13% in assay [9]. In addition, the inhibition at 10 µM in assay [10] is 66%; in assay [11], -20%; in assay [12], 95%; in [13], 85%; in assay [14], 15%; in [15], 80%. Also, the inhibition at 10 µM in assay [16] was found to be 58%.
In the case of `O=c1cc(N2CCOCC2)oc2c(-c3ccccc3)cccc12` [LY294002, reference compound], the EC50 in the assay with C9M-TF1 cells [17] was around 6 µM; in the assay with FRAT2-C9M-TF1 cells [18], around 50 µM; in assay [1], 1.07 µM; in assay [2], 12.9 µM; in assay [3] it was 5.37 µM; in the assay on FRAT2-C9M-TF1 cells [4] (absence of growth factor), 75.9 µM. For the same molecule, the concentration giving a half-maximal response (EC50) came to 51.3 µM with FRAT2-C9M-TF1 cells [4] (presence of growth factor), 6.03 µM with C9M-TF1 cells [5], 21 µM with HCT116 and 3 µM in the assay with LoVo. Moreover, the “difference of EC50 between FRAT2-C9M-TF1 and C9M-TF1 cells” value in the assay on FRAT2-C9M-TF1 cells [4] (FRAT2-C9M-TF1 cells more resistant) is “approx. 8.5 fold”.
In the case of “Avastin: FDA-approved monoclonal antibody (Genentech) blocking vascular endothelial growth factor (VEGF)”, in the assay with colon cancer, the “lived longer than patients on the standard regimen alone” value is given as “about five”.
